{"source": "patent US12611380B2", "about": "“Solution and method for reducing the virulence of viruses, bacteria, yeasts, or fungus” (priority 2020, dated 2026)", "key": {"[1]": {"test_system": "Candida auris AR-0381", "assay": "EPA MLB SOP MB-35-00 stainless steel carrier disinfection with ILPS (Example 5)", "format": "cell-based"}, "[2]": {"test_system": "Candida albicans (ATCC 10231)", "assay": "EPA protocol MB-35-00 hard surface carrier disinfection test", "conditions": "0.42 M, 1 min", "procedure": "We used EPA protocol MB-35-00 for testing disinfectants against C. auris (US Environmental Protection Agency. 2017, 2020) and C. albicans ATCC 10231, a yeast common in package spoilage of food and cosmetics.\nWe tested 5 batches produced with difference sources of isomerized linoleic acid (Test Substances 1-5).\nThe EPA test protocol for testing hard surface disinfection of C. auris (AR0381) with antifungal resistance includes an overnight culture of C. auris (AR.0381) shaken at 200 rpm at 30° C. From this culture, 8 mL was harvested by centrifugation, re-suspended in 2-3 mL phosphate-buffered saline (PBS), and mixed with a 3-part soil load including bovine serum albumin (BSA), yeast extract, and mucin. Metal carriers (10 mm) were inoculated (10 μL culture+soil load) and dried in a desiccator under vacuum (˜70 min). The disk surface was coated with the test substance at 0.42 M (50 μL) for up to 10 min. Following incubation, the carriers were transferred to 10 mL neutralization solution (Sabouraud Dextrose Broth [SDB], a common yeast-mold growth media) for subsequent harvesting on membrane filters. The filtered membranes were transferred to Sabouraud Dextrose Emmons Agar (SDEA) plates to culture for 120 hours at 31° C. Controls consisted of PBS (50 μL) applied to inoculated metal disk carriers, subsequently transferred to 10 mL neutralization solution (SDB), diluted serially in PBS, and plated directly to SDEA plates, See FIG. 2.\nWe prepared and qualified these per EPA protocol (US Environmental Protection Agency, 2017). • Soil Stocks: We prepared soil stocks with yeast extract powder (Ref RM027) purchased from Himedia, BSA (A2153) purchased from Sigma Life Science, and gastric mucin (cat #HY-B2196/CS-7626) purchased from Mod Chem Express per SOP MB-35-00 (US Environmental Protection Agency, 2017). • Cell Harvesting: We removed cells from the growth culture media using a Micro-Centrifuge obtained from Changzhou Jintan Sanhe Instrument Co., LTD. (Model TGI6-W) at 10,000×g for 10 min in screw-top-cap vials purchased from Heathrow Scientific (Item HS 100600). The optical density of the inoculate was defined at 15-19 OD600 in PBS with the Ultrospec 10 Cell Density Meter from BioChrom (Holliston, MA, USA) prior to dilution in the soil load. Samples were diluted 1:10 in PBS to obtain absorbance readings between 1.5 and 1.9. • Membrane Filtration: Treated yeasts were collected using a combination of the Rocker (Cat #200300-01) and 47 mm PES membranes with a 0.45 micron pore size obtained from Sterlitech (Catalog #PE54547100)."}}, "data": [{"substance": "potassium salt of isomerized linoleic acid [ILCS]", "values": [{"measurement": "kill", "setting": "[1]; 2-minute immersion, carriers inoculated with 6-8 log yeast", "result": 100, "unit": "%"}, {"measurement": "colonies recovered from treated carries", "setting": "[1]; undiluted ILPS, 10 minutes, seven carries, untreated 7.1-7.2 log10 CFU", "result": "no colonies"}, {"measurement": "log kill rate", "setting": "[2]", "result": "greater than 5 log"}]}]}
